Test results from patent publication US7566808B2, “Management of ophthalmologic disorders, including macular degeneration” (President and Fellows of Harvard College, priority 2004, dated 2009).

Experiments:
[1] = system: A2E formation from all-trans-retinal and ethanolamine; assay: In vitro A2E formation in the presence of aromatic amine
Method: 100 mg (355 μmoles) of all-trans-retinal was dissolved in 3 mL followed by the addition of 9.5 μL of glacial acetic acid 9.5 μL of ethanolamine (155 μmoles). This solution was aliquoted into 300 μL fractions. 3-aminoethylbenzoate (15.5 μmoles) was added to the samples at 0, 2, 3.75, 14, 16.25, 18.0833 19.917 23.75 and 48 hrs. […] The solutions were shaken at room temperature for 48 hrs. The solutions were then kept at −80° C. and 15 μL was diluted to 250 μL (methanol). The solutions (15 μL) were then analyzed on a reverse phase (C18-5 μm-4.6 mm×150 mm) column on a linear gradient 85%-96% methanol/water and UV detector at 430 nm to determine the amount of A2E formation. The percent A2E formation was compared to A2E formation at 48 h in the absence of aromatic amine.

[2] = system: bovine retinal pigment epithelial membrane system (11-cis-retinol formation); assay: 11-cis-retinol formation in RPE membranes (IMH activity / RPE65 function); type: biochemical
Method: A control reaction mixture without any inhibitor was also incubated at room temperature for 15 min. At the end of the 15 min incubation, all-trans-retinol [11-12-^3H2] (0.2 μM) was added to the reaction mixtures (100 mM Tris pH 8.0, […] of RPE protein, 0.2% BSA 100 μM of DPPC, 1 mM of DTT and 0.2 μM all-trans-retinol [11-12-^3H2]) and incubated at room temperature for 30 min. At the end of this 30 minutes of incubation, an aliquot of the reactions were quenched to verify the equal addition of all-trans-retinol [11,12-^3H2] and the effect of these inhibitors on LRAT. After this the control reaction mixture was incubated with atRA (60 & 6 μM), 13cRA (60 & 6 μM) or 4-HPR (60 & 6 μM) for 15 min. Now all the reaction mixtures were incubated with 30 μM of apo-rCRALBP (100 mM Tris pH 8.0, 7.7 μg of RPE protein, 0.2% BSA 100 μm of DPPC, 1 mM of DTT 30 μM apo-rCRALBP and 0.2 μM all-trans-retinol [11-12-^3H2]) at 37° C. for 30 minutes. At the end of this incubation period the 200 μL reaction mixture was quenched by the addition of 750 μL ice cold methanol after which 100 μL of 1M sodium chloride solution was added, and 500 μl hexane (containing butylated hydroxy toluene at 1 mg/mL) was added to effect extraction of the retinoids. The retinoids were analyzed as previously described (27). The amount of 11-cis-retinol formed was used as a measurement of IMH activity. All experiments were performed in triplicate and the average values of these measurements were used for analysis.
A control reaction mixture without any inhibitor was also incubated at room temperature for 15 min. At the end of the 15 min incubation, all-trans-retinol [11-12-^3H2] (0.2 μM) was added to the reaction mixtures (100 mM Tris pH 8.0, 76.7 μg of RPE protein, 0.2% BSA 100 μM of DPPC, 1 mM of DTT and 0.2 μM all-trans-retinol [11-12-^3H2]) and incubated at room temperature for 30 min. […] The retinoids were analyzed as previously described (27). […]

[3] = system: abcr knockout mice; assay: In vivo A2E accumulation in abcr knockout mice; conditions: versus no drug
Method: Effects on accumulation of A2E in abcr knockout mice by farnesyl decyl ketone and N-palmityl farnesimide were investigated. Mice were injected with 50 mg/kg drug in 25 microliters of DMSO or with only DMSO for the control group once or twice a week. After 2 to 2½ months, the mice were sacrificed, and A2E and iso-A2E were harvested and quantitated from 4 eyes for each drug or control.

[4] = biological target: T1, tLRAT (Homo sapiens, UniProt O95237); assay: mRPE65 concentration-dependent esterification of vitamin A by tLRAT; type: biochemical; conditions: FIG. 11C
T1 construct: This form of LRAT has the two N and C-terminal transmembrane domains of LRAT truncated, and is His-tagged; made in house
T1 sequence (O95237 31-196 limits assumed): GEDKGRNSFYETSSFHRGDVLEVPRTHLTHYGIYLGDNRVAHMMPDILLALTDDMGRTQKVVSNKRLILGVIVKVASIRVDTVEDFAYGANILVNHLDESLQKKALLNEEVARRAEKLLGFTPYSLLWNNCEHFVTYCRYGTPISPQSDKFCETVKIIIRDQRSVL
Method: Effect of sRPE65 on tLRAT mediated esterification: The activity of LRAT was determined by monitoring the formation of tLRAT catalyzed retinyl esters from added all-trans-retinol [11,12-^3H2] sRPE65 and/or DPPC/dodecyl maltoside. In all of the studies reported here truncated LRAT (tLRAT) is used (Jahng et al., 2003b). This form of LRAT has the two N and C-terminal transmembrane domains of LRAT truncated, and is His-tagged which allows for the bacterial expression of LRAT and for its full purification (Bok et al., 2003). LRAT has never been purified and is not expressible in bacteria. Kinetic studies on LRAT and tLRAT show them to behave identically (Bok et al., 2003). […] The amount of all-trans-retinyl palmitate [11,12-^3H2] formed as determined by normal phase HPLC and was used as a measure of activity. […]
mRPE65 concentration-dependent esterification of vitamin A: The effect of mRPE65 concentration on the rates of all-trans-retinyl palmitate formation was determined by monitoring the tLRAT catalyzed formation of all-trans-retinyl palmitate from added [11,12-^3H2]-all-trans-retinol and mRPE65. […] The amount of all-trans-retinyl palmitate [11,12-^3H2] formed as determined by normal phase-HPLC and was used as a measure of activity. The kinetic paramaters KM (Kapp) and N were calculated as described before (Segal 1993). […]

CCOC(=O)c1cccc(N)c1 [3-aminoethylbenzoate, ethyl 3-aminobenzoate]
A2E % formation (48 Hrs = 100) ([1]; amine added at 0 hrs): 3.98% | A2E % formation (48 Hrs = 100) ([1]; amine added at 2 hrs): 8.67% | A2E % formation (48 Hrs = 100) ([1]; amine added at 3.75 hrs): 7.71% | A2E % formation (48 Hrs = 100) ([1]; amine added at 14 hrs): 19.73% | A2E % formation (48 Hrs = 100) ([1]; amine added at 16.25 hrs): 19.25% | A2E % formation (48 Hrs = 100) ([1]; amine added at 18.0833 hrs): 23.70% | A2E % formation (48 Hrs = 100) ([1]; amine added at 19.91667 hrs): 27.65% | A2E % formation (48 Hrs = 100) ([1]; amine added at 23.75 hrs): 22.44% | A2E % formation (48 Hrs = 100) ([1]; amine added at 48 hrs): 100.00%

CC1=C(/C=C/C(C)=C/C=C/C(C)=C/C(=O)Nc2ccc(O)cc2)C(C)(C)CCC1 [N-(4-hydroxyphenyl)retinamide]
inhibition of 11-cis-retinol formation, pre-incubation with inhibitor ([2]; 60 μM or 6 μM, pre-incubation before vitamin A, FIG. 8): substantially weaker

CCCCCCCCCCC(=O)CC=C(C)CCC=C(C)CCC=C(C)C [Farnesyl decyl ketone, farnesyl decyl ketone]
reduction of total accumulation [3]: about 80%

CC1=C(/C=C/C(C)=C/C=C/C(C)=C/C(=O)O)C(C)(C)CCC1 [all-trans-retinoic acid]
inhibition of 11-cis-retinol formation, membranes pre-incubated with vitamin A before inhibitor ([2]; 60 μM, data not shown): not susceptible to inhibition

CCCCCCCCCCCCCCCCNC(=O)C/C=C(\C)CC/C=C(\C)CCC=C(C)C [N-Palmityl farnesimide, palmityl farnesimide]
reduction of total accumulation [3]: about 47%

B1: mRPE65: membrane-associated, palmitoylated form of RPE65; acts as palmitoyl donor for LRAT (protein, UniProt Q16518 2-533, looked up)
Retinoid isomerohydrolase: SIQVEHPAGGYKKLFETVEELSSPLTAHVTGRIPLWLTGSLLRCGPGLFEVGSEPFYHLFDGQALLHKFDFKEGHVTYHRRFIRTDAYVRAMTEKRIVITEFGTCAFPDPCKNIFSRFFSYFRGVEVTDNALVNVYPVGEDYYACTETNFITKINPETLETIKQVDLCNYVSVNGATAHPHIENDGTVYNIGNCFGKNFSIAYNIVKIPPLQADKEDPISKSEIVVQFPCSDRFKPSYVHSFGLTPNYIVFVETPVKINLFKFLSSWSLWGANYMDCFESNETMGVWLHIADKKRKKYLNNKYRTSPFNLFHHINTYEDNGFLIVDLCCWKGFEFVYNYLYLANLRENWEEVKKNARKAPQPEVRRYVLPLNIDKADTGKNLVTLPNTTATAILCSDETIWLEPEVLFSGPRQAFEFPQINYQKYCGKPYTYAYGLGLNHFVPDRLCKLNVKTKETWVWQEPDSYPSEPIFVSHPDALEEDDGVVLSVVVSPGAGQKPAYLLILNAKDLSEVARAEVEINIPVTFHGLFKKS
modifications: palmitoylated membrane-associated form
notes: membrane-associated, palmitoylated form of RPE65; acts as palmitoyl donor for LRAT
Hill plot N [4]: 2.54
